Entries after “also recorded” stand apart in the source; their conditions may differ. Counter-ions that a name gives are not always drawn.
Assays:
TAAR1 [1] = target: T1, TAAR1 (Homo sapiens, UniProt Q96RJ0); assay: BRET cAMP biosensor (EPAC) assay of TAAR1 agonistic activity in transiently transfected HEK-293 cells; format: cell-based; parameters: key to Agonistic Activity (class Inactive): Inactive: Producing less than 20% activation of TAAR1 relative to 1 μM tyramine hydrochloride; settings: for EC50 / EC50, μM: TAAR1 agonistic activity, concentration-response; for Agonistic Activity at 1 μM, %: compound at 1 μM; for Agonistic Activity at 1 μM, % / activation at 10 µM: compared to 1 μM tyramine hydrochloride (positive control), primary screening; for TAAR1 Activity (active / inactive, in words): agonistic activity in words; for Agonistic Activity (class Inactive): primary screening at 1 μM or 10 μM, relative to 1 μM tyramine hydrochloride; for activation at 10 µM: HEK293, compound at 10 μM (footnote c)
T1 construct: expressed in transfected cells; host or cells: HEK-293 cells, transient transfection
T1 sequence (Q96RJ0 1-339): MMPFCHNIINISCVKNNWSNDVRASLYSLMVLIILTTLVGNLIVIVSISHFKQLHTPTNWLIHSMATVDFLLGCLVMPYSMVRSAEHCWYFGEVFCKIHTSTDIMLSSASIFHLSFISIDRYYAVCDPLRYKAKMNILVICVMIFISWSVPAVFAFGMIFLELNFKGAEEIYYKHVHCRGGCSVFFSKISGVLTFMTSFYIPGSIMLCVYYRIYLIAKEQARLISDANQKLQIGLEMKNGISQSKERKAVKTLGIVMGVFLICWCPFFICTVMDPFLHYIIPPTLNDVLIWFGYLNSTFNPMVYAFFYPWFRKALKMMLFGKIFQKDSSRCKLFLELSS
Method: Compounds 7–29 synthesized as described above (as well the initial hit compound 1 used as a comparator) were tested in the Bioluminescence Resonance Energy Transfer approach (BRET) assay using HEK-293 cells transiently transfected with cDNA for TAARs as well as cAMP BRET biosensor (EPAC) protein. The compounds were initially tested at 1 μM or 10 μM concentrations and those producing <20% activation of TAAR1 (relative to 1 μM tyramine hydrochloride) were not pursued further. The active compounds were further evaluated in a dose–response mode in order to determine their EC50 values.
The Bioluminescence Resonance Energy Transfer approach (BRET) has been used for functional activity experiments. HEK-293 cells were transiently transfected with cDNA for TAARs and cAMP BRET biosensor (EPAC) protein and then plated in a 96-well plate as described. All compounds were tested at the initial concentrations of 1 μM or 10 μM. Then, for active compounds, a concentration–response analysis was performed in order to calculate the EC50 values. Natural agonist of TAAR1 tyramine hydrochloride was used as a positive control.

[2] = tested on: dopamine transporter knockout (DAT-KO) rats; assay: DAT-KO rat hyperlocomotion test; format: in vivo; settings: for Reduction in hyperlocomotion of DAT-KO rats: i.p., 90 min locomotion test, dose range 5–15 mg/kg for 18
Method: Compounds 9, 17–19 were evaluated in dopamine transporter knockout (DAT-KO) rats characterized with psychosis-like hyperlocomotion activity. The ability of compounds to reduce the hyperlocomotion in these genetically modified animals generally deemed as an adequate model of psychosis-like states and schizophrenia was expected to unveil the potential of these compounds as potential therapies for these psychiatric disorders.
Twelve Wistar dopamine transporter knockout (DAT-KO) female rats were utilized for assessment of drugs’ activity on hyperlocomotion. Animals were maintained on a 12/12 light/dark cycle at the room temperature maintained between 20 °C and 23 °C with a relative humidity maintained between 30% and 70%. Chow and water were provided ad libitum for the duration of the studies.
All compounds were dissolved in physiological saline (0.9% solution of NaCl) and intraperitoneally injected in volume 10 mL/kg immediately before locomotion testing.
Rats were intraperitoneally injected with a compound solution or vehicle (saline) and were immediately placed in Plexiglas boxes 40 cm × 40 cm × 40 cm for 90 min. Noldus EthoVision software was used to measure the distance moved by the animals.

Solubility = format: physicochemical; settings: reason for not progressing to in vivo tests
TAAR1 [3] = target: T1, TAAR1; parameters: method as in PMID 11723224; settings: not tested in this paper; cited from earlier work

In the case of `Cl.NCCC1CCN(C(=O)Nc2ccccc2)CC1` [Compound 1, 4-(2-Aminoethyl)-N-phenylpiperidine-1-carboxamide hydrochloride], the EC50 (TAAR1 [1]) is reported as 0.507 µM and the “Agonistic Activity at 1 μM, %” value (TAAR1 [1]) is reported as 65%.

With `Cc1ccc(NC(=O)N2CCC(CCN)CC2)cc1.Cl` [Compound 7, 4-(2-Aminoethyl)-N-(4-methylphenyl)piperidine-1-carboxamide hydrochloride] the “TAAR1 Activity (active / inactive, in words)” value (TAAR1 [1]) was “Inactive” and the “Agonistic Activity (class Inactive)” value (TAAR1 [1]) was “Inactive ^b”.

For `Cl.NCCC1CCN(C(=O)Nc2cccc(F)c2)CC1` [Compound 8, 4-(2-Aminoethyl)-N-(3-fluorophenyl)piperidine-1-carboxamide hydrochloride], the “Agonistic Activity (class Inactive)” value (TAAR1 [1]) was “Inactive”.

With `Cc1cccc(NC(=O)N2CCC(CCN)CC2)c1.Cl` [Compound 9, 4-(2-Aminoethyl)-N-(3-methylphenyl)piperidine-1-carboxamide hydrochloride] the “Reduction in hyperlocomotion of DAT-KO rats” value (“Reduction in hyperlocomotion” below) [2] was “absence of in vivo efficacy”, the EC50 (TAAR1 [1]) was 0.052 µM and the “TAAR1 Activity (active / inactive, in words)” value (TAAR1 [1]) was “Active”. The “Agonistic Activity at 1 μM, %” value (TAAR1 [1]) was 89%.

For `Cc1ccccc1NC(=O)N1CCC(CCN)CC1.Cl` [Compound 10, 4-(2-Aminoethyl)-N-(2-methylphenyl)piperidine-1-carboxamide hydrochloride], the “TAAR1 Activity (active / inactive, in words)” value (TAAR1 [1]) was “Inactive” and the “Agonistic Activity (class Inactive)” value (TAAR1 [1]) was “Inactive”.

With `Cl.NCCC1CCN(C(=O)Nc2ccc(F)cc2)CC1` [Compound 11, 4-(2-Aminoethyl)-N-(4-fluorophenyl)piperidine-1-carboxamide hydrochloride] the EC50 (TAAR1 [1]) was 0.206 µM, the “EC50, μM” value (TAAR1 [1]) was “submicromolar” and the “Agonistic Activity at 1 μM, %” value (TAAR1 [1]) was 84%.

In the case of `Cl.NCCC1CCN(C(=O)Nc2cc(F)ccc2F)CC1` [Compound 12, 4-(2-Aminoethyl)-N-(2,5-difluorophenyl)piperidine-1-carboxamide hydrochloride], the EC50 (TAAR1 [1]) is reported as 0.273 µM, the “TAAR1 Activity (active / inactive, in words)” value (TAAR1 [1]) is reported as “Active” and the “Agonistic Activity at 1 μM, %” value (TAAR1 [1]) is reported as 75%.

With `Cl.NCCC1CCN(C(=O)Nc2ccc(F)cc2F)CC1` [Compound 13, 4-(2-Aminoethyl)-N-(2,4-difluorophenyl)piperidine-1-carboxamide hydrochloride] the “TAAR1 Activity (active / inactive, in words)” value (TAAR1 [1]) was “Inactive” and the “Agonistic Activity (class Inactive)” value (TAAR1 [1]) was “Inactive”.

With `Cl.NCCC1CCN(C(=O)Nc2cc(F)cc(F)c2)CC1` [Compound 14, 4-(2-Aminoethyl)-N-(3,5-difluorophenyl)piperidine-1-carboxamide hydrochloride] the “TAAR1 Activity (active / inactive, in words)” value (TAAR1 [1]) was “Inactive” and the “Agonistic Activity (class Inactive)” value (TAAR1 [1]) was “Inactive”.

With `Cc1ccc(NC(=O)N2CCC(CCN)CC2)cc1F.Cl` [Compound 15, 4-(2-Aminoethyl)-N-(3-fluoro-4-methylphenyl)piperidine-1-carboxamide hydrochloride] the “EC50, μM” value (TAAR1 [1]) was “inactive” and the “Agonistic Activity (class Inactive)” value (TAAR1 [1]) was “Inactive”.

`Cc1cc(NC(=O)N2CCC(CCN)CC2)ccc1F` [Compound 16, 4-(2-Aminoethyl)-N-(4-fluoro-3-methylphenyl)piperidine-1-carboxamide hydrochloride] showed an activation at 10 µM (TAAR1 [1]) of 107% and an EC50 (TAAR1 [1]) of 0.143 µM.

With `Cc1ccc(NC(=O)N2CCC(CCN)CC2)cc1C.Cl` [Compound 17, 4-(2-Aminoethyl)-N-(3,4-dimethylphenyl)piperidine-1-carboxamide hydrochloride] the “Reduction in hyperlocomotion” value [2] was “absence of in vivo efficacy”, the activation at 10 µM (TAAR1 [1]) was 84% and the EC50 (TAAR1 [1]) was 0.033 µM.

With `Cc1cc(C)cc(NC(=O)N2CCC(CCN)CC2)c1.Cl` [Compound 18, 4-(2-Aminoethyl)-N-(3,5-dimethylphenyl)piperidine-1-carboxamide hydrochloride] the “Effect on DAT-KO hyperlocomotion at 5 mg/kg” value ([2]; 5 mg/kg i.p., dynamics for 90 min, two-way ANOVA) was “did not reveal significant effect”, the “Effect on DAT-KO hyperlocomotion at 10 mg/kg” value ([2]; 10 mg/kg i.p., 90 min, two-way ANOVA) was “significantly decreased hyperlocomotion” and the “Effect on DAT-KO hyperlocomotion at 15 mg/kg” value ([2]; 15 mg/kg i.p., 90 min, two-way ANOVA) was “significantly decreased DAT-KO hyperlocomotion”. For the same compound, the “Reduction in hyperlocomotion” value ([2]; listed as 18 (AP163)) was “statistically significant, dose-dependent reduction; also recorded: significantly attenuated DAT-KO hyperlocomotion”, the “Reduction in hyperlocomotion” value ([2]; listed as AP163) was “statistically significant and dose-dependent reduction in hyperlocomotion” and the activation at 10 µM (TAAR1 [1]) was 85%. The EC50 (TAAR1 [1]) was 0.112 µM.

In the case of `Cc1ccc(C)c(NC(=O)N2CCC(CCN)CC2)c1.Cl` [Compound 19, 4-(2-Aminoethyl)-N-(2,5-dimethylphenyl)piperidine-1-carboxamide hydrochloride], the “Reduction in hyperlocomotion” value [2] is reported as “absence of in vivo efficacy”, the activation at 10 µM (TAAR1 [1]) is reported as 80% and the EC50 (TAAR1 [1]) is reported as 0.042 µM.

`Cc1cccc(NC(=O)N2CCC(CCN)CC2)c1C` [Compound 20, 4-(2-Aminoethyl)-N-(2,3-dimethylphenyl)piperidine-1-carboxamide hydrochloride] showed an activation at 10 µM (TAAR1 [1]) of 82% and an EC50 (TAAR1 [1]) of 0.914 µM.

For `Cl.NCCC1CCN(C(=O)Nc2cccc(C(F)(F)F)c2)CC1` [Compound 21, 4-(2-Aminoethyl)-N-(3-(trifluoromethyl)phenyl)piperidine-1-carboxamide hydrochloride], the activation at 10 µM (TAAR1 [1]) was 96%, the EC50 (TAAR1 [1]) was 0.035 µM and the Solubility (Solubility) was “poor solubility”.

In the case of `COc1ccc(C)cc1NC(=O)N1CCC(CCN)CC1` [Compound 22, 4-(2-Aminoethyl)-N-(2-methoxy-5-methylphenyl)piperidine-1-carboxamide hydrochloride], the activation at 10 µM (TAAR1 [1]) is reported as 84% and the EC50 (TAAR1 [1]) is reported as 1.9 µM.

With `Cl.NCCC1CCN(C(=O)Nc2cccc(Cl)c2)CC1` [Compound 23, 4-(2-Aminoethyl)-N-(3-chlorophenyl)piperidine-1-carboxamide hydrochloride] the “Agonistic Activity (class Inactive)” value (TAAR1 [1]) was “Inactive”.

Work on `NCCC1CCN(C(=O)c2ccccc2)CC1` [Compound 24, (4-(2-Aminoethyl)piperidin-1-yl)(phenyl)methanone hydrochloride] yielded an activation at 10 µM (TAAR1 [1]) of 31% and an EC50 (TAAR1 [1]) of 0.635 µM.

`Cc1cccc(C(=O)N2CCC(CCN)CC2)c1` [Compound 25, (4-(2-Aminoethyl)piperidin-1-yl)(m-tolyl)methanone] showed an activation at 10 µM (TAAR1 [1]) of 41% and an EC50 (TAAR1 [1]) of 0.634 µM.

With `Cl.NCCC1CCN(S(=O)(=O)c2ccccc2)CC1` [Compound 26, 2-[1-(Phenylsulfonyl)piperidin-4-yl]ethanamine hydrochloride] the “Agonistic Activity (class Inactive)” value (TAAR1 [1]) was “Inactive”.

In the case of `Cl.NCCC1CCN(S(=O)(=O)c2ccc(F)cc2)CC1` [Compound 27, 2-{1-[(4-Fluorophenyl)sulfonyl]piperidin-4-yl}ethanamine hydrochloride], the “Agonistic Activity (class Inactive)” value (TAAR1 [1]) is reported as “Inactive”.

For `Cc1ccc(S(=O)(=O)N2CCC(CCN)CC2)cc1.Cl` [Compound 28, 2-{1-[(4-Methylphenyl)sulfonyl]piperidin-4-yl}ethanamine hydrochloride], the “Agonistic Activity (class Inactive)” value (TAAR1 [1]) was “Inactive”.

For `CN1CCC(CCN)CC1.Cl.Cl` [Compound 29, 2-(1-Methylpiperidin-4-yl)ethan-1-amine dihydrochloride], the “TAAR1 Activity (active / inactive, in words)” value (TAAR1 [1]) was “inactivity” and the “Agonistic Activity (class Inactive)” value (TAAR1 [1]) was “Inactive”.

For `CCc1[nH]nc(C(=O)Nc2ccc([C@H]3CNCCO3)cc2)c1C` [Ralmitaront], the “TAAR1 Activity (reference ligand)” value (TAAR1 [3]) is given as “Active”.

From publication PMC9569940, “Discovery and In Vivo Efficacy of Trace Amine-Associated Receptor 1 (TAAR1) Agonist 4-(2-Aminoethyl)-N-(3,5-dimethylphenyl)piperidine-1-carboxamide Hydrochloride (AP163) for the Treatment of Psychotic Disorders” (International Journal of Molecular Sciences, 2022)
